The test system of assay [1] is KDM5A and KDM5B. As to the kind of experiment: In vitro cell-based assay: tri-methyl H3K4 immuno-blotting in ZR-75-1 cells (cellular inhibition of KDM5A/B). The note with it: ZR-75-1 breast cancer cells, 72 hours, tri-methylated H3K4 level; read-out: IC50 ZR-75-1 cell-MOA.
Method: This quantitative immuno-blotting assay measures the amount tri-methylated histone H3 at amino acid Lysine number 4, a specific substrate and product of the direct enzymatic activity of the histone demethylases KDM5A and KDM5B from extracts of the ZR-75-1 breast cancer cell line.
This assay is a fluorometric immunoassay for the quantification of tri-methyl H3K4 extracted from cells treated with test compound and is used as a measure of the cellular inhibition of KDM5A/B.
Extracts were prepared containing all of the cellular histone material using detergent based lysis and sonication methods. These lysates were subsequently normalized for total protein content using a colorimetric bicinchonic acid assay (MicroBCA Pierce/Thermo Scientific). Normalized cell extracts were then subjected to typical immuno-blotting procedures using NuPage reagents (Life Technologies). Electrophoretically separated histones were then transferred and immobilized using polyvinylidene difluoride membrane (Immobilon-FL Millipore). The amount of tri-methylated lysine 4 of histone H3 was detected using an antibody specific to the tri-methylated state (Cell Signaling Technologies) and quantified on an infrared imager using a densitometry software package (Odyssey CLx, Image Studio, Li-Cor). This background subtracted densitometry value was reported as a ration of the GAPDH amount for that sample and then calculated as a percent of the DMSO treated sample. The software package XL-fit (IDBS) was then used to calculate a relative IC50 value for the dilution series of a given test compound according to the equation: fit=(D+((Vmax*(x^n))/((x^n)+(Km^n)))).
Assay [2] deals with JMJD2A (Homo sapiens (Human), UniProt O75164). As to the kind of experiment: JMJD2A in vitro enzyme inhibition assay (TR-FRET). In kind it is biochemical.
Method: This assay determines the ability of a test compound to inhibit Jarid1A, Jarid1B, JMJD2C, and JMJD2A demethylase activity. […] Baculovirus expressed JMJD2A (GenBank Accession #NM_014663, AA 1-350) was purchased from BPS Bioscience (Cat#50123).
The ability of test compounds to inhibit the activity of JMJD2A was determined in 384-well plate format under the following reaction conditions: 2 nM JMJD2A, 300 nM H3K9me3-biotin labeled peptide (Anaspec cat #64360), 2 μM alpha-ketoglutaric acid in assay buffer of 50 mM HEPES, pH7.3, 0.005% Brij35, 0.5 mM TCEP, 0.2 mg/ml BSA, 50 μM sodium L-ascorbate, and 2 μM ammonium iron(II) sulfate. Reaction product was determined quantitatively by TR-FRET after the addition of detection reagent Phycolink Streptavidin-allophycocyanin (Prozyme) and Europium-anti-di-methylated histone H3 lysine 9 (H3K9me2) antibody (PerkinElmer) in the presence of 5 mM EDTA in LANCE detection buffer (PerkinElmer) at a final concentration of 50 nM and 1 nM, respectively.
The assay reaction was initiated by the following: 2 μl of the mixture of 900 nM H3K9me3-biotin labeled peptide and 6 μM alpha-ketoglutaric acid with 2 μl of 11-point serial diluted inhibitor in 3% DMSO were added to each well of plate, followed by the addition of 2 μl of 6 nM JMJD2A to initiate the reaction. The reaction mixture was incubated at room temperature for 30 minutes, and terminated by the addition of 6 μl of 5 mM EDTA in LANCE detection buffer containing 100 nM Phycolink Streptavidin-allophycocyanin and 2 nM Europium-anti-H3K9me2 antibody. Plates were read by EnVisionMultilabel Reader in TR-FRET mode (excitation at 320 nm, emission at 615 nm and 665 nm) after 1 hour incubation at room temperature. A ratio was calculated (665/615) for each well and fitted to determine inhibition constant (IC50).
Assay [3] has as its target Jarid1A (Homo sapiens (Human), UniProt P29375). As to the kind of experiment: Jarid1A in vitro enzyme inhibition assay (TR-FRET). In kind it is biochemical. From the text: The enzymatic assay of Jarid1A activity is based upon Time Resolved-Fluorescence Resonance Energy Transfer (TR-FRET) detection.
On the technique in general: TR-FRET usually uses a lanthanide donor and a delayed reading to cut background.

The target of assay [4] is JMJD2C (Homo sapiens (Human), UniProt Q9H3R0). As to the kind of experiment: JMJD2C in vitro enzyme inhibition assay (TR-FRET). The class given is biochemical.
Chain of JMJD2C (Q9H3R0 2-372): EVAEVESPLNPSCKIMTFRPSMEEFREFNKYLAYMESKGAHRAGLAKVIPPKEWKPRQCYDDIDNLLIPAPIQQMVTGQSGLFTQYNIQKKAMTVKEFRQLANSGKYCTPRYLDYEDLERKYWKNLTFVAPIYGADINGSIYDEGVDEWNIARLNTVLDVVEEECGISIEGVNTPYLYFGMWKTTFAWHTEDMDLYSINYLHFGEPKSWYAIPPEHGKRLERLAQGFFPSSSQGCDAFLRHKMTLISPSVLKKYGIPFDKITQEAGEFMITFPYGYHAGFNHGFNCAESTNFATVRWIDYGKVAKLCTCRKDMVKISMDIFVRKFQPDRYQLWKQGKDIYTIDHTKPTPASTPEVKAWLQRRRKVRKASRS
Method: This assay determines the ability of a test compound to inhibit Jarid1A, Jarid1B, JMJD2C, and JMJD2A demethylase activity. […] Baculovirus expressed JMJD2C (GenBank Accession #BC143571, AA 2-372) was purchased from BPS Bioscience (Cat#50105).
The ability of test compounds to inhibit the activity of JMJD2C was determined in 384-well plate format under the following reaction conditions: 0.3 nM JMJD2C, 300 nM H3K9me3-biotin labeled peptide (Anaspec cat #64360), 2 μM alpha-ketoglutaric acid in assay buffer of 50 mM HEPES, pH7.3, 0.005% Brij35, 0.5 mM TCEP, 0.2 mg/ml BSA, 50 μM sodium L-ascorbate, and 2 μM ammonium iron(II) sulfate. Reaction product was determined quantitatively by TR-FRET after the addition of detection reagent Phycolink Streptavidin-allophycocyanin (Prozyme) and Europium-anti-di-methylated histone H3 lysine 9 (H3K9me2) antibody (PerkinElmer) in the presence of 5 mM EDTA in LANCE detection buffer (PerkinElmer) at a final concentration of 50 nM and 1 nM, respectively.
The assay reaction was initiated by the following: 2 μl of the mixture of 900 nM H3K9me3-biotin labeled peptide and 6 μM alpha-ketoglutaric acid with 2 μl of 11-point serial diluted inhibitor in 3% DMSO were added to each well of the plate, followed by the addition of 2 μl of 0.9 nM JMJD2C to initiate the reaction. The reaction mixture was incubated at room temperature for 30 minutes, and terminated by the addition of 6 μl of 5 mM EDTA in LANCE detection buffer containing 100 nM Phycolink Streptavidin-allophycocyanin and 2 nM Europium-anti-H3K9me2 antibody. Plates were read by EnVisionMultilabel Reader in TR-FRET mode (excitation at 320 nm, emission at 615 nm and 665 nm) after 1 hour incubation at room temperature. A ratio was calculated (665/615) for each well and fitted to determine inhibition constant (IC50).
Assay [5] addresses FBXL10 (Homo sapiens (Human), UniProt Q8NHM5). As to the kind of experiment: FBXL10 in vitro enzyme inhibition assay (AlphaScreen). The class given is biochemical. A digest of the protocol:
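AlphaScreen read-out of H3K36me1 product, detected with anti-H3K36me1 antibody plus streptavidin donor and Protein A acceptor beads (final 10 μg/ml) in 50 mM HEPES pH 7.3, 10 mM NaCl, 0.005% Brij35, 5 mM EDTA, 2 mg/ml BSA. Beads incubated 2 h to overnight at room temperature; IC50 derived from AlphaScreen signal.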
(Alpha assays give light when donor and acceptor beads are brought close together.)

In assay [6] the target is Jarid1B (Homo sapiens (Human), UniProt Q9UGL1). As to the kind of experiment: Jarid1B in vitro enzyme inhibition assay (TR-FRET). The class given is biochemical.
Chain of Jarid1B (Q9UGL1 2-751): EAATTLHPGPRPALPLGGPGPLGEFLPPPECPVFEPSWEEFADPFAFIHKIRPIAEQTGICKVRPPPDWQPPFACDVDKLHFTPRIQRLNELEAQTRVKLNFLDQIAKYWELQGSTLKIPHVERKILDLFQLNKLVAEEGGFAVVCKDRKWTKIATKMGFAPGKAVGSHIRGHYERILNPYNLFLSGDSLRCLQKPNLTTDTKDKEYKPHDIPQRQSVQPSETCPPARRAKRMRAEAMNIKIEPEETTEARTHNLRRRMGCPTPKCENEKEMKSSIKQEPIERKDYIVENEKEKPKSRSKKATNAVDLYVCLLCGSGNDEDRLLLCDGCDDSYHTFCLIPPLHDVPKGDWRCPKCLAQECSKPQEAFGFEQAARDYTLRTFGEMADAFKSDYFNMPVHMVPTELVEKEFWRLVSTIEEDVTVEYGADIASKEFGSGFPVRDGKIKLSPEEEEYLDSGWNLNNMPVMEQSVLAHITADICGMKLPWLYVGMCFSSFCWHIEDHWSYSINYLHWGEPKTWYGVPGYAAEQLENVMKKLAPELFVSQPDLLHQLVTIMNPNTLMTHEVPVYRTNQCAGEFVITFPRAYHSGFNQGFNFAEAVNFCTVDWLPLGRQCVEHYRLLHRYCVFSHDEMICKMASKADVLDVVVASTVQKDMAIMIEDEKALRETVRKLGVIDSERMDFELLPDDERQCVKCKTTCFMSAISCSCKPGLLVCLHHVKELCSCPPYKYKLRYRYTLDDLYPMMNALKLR

One may read the IC50 as the concentration that gives 50% inhibition.

SMILES strings stand for the structures. A value given as a limit tells only on which side of the number the result lay.

Chain of FBXL10 (Q8NHM5 1-650): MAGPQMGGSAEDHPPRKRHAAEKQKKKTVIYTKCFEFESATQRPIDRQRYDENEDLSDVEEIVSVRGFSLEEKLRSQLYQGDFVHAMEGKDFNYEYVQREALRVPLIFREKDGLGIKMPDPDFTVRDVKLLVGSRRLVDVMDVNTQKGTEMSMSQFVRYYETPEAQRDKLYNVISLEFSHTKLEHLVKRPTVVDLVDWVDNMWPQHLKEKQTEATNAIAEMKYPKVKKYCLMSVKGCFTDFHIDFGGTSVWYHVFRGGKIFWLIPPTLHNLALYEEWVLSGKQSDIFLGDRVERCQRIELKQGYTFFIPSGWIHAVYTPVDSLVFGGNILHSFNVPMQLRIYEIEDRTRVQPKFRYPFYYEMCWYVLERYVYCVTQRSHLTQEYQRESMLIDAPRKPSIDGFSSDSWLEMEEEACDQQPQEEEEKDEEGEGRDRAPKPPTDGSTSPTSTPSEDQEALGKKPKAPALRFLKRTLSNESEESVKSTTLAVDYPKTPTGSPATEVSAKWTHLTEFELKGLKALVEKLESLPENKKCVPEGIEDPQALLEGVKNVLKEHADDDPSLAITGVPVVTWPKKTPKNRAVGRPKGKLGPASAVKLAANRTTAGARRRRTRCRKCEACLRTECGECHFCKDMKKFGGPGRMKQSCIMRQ
Chain of JMJD2A (O75164 1-350): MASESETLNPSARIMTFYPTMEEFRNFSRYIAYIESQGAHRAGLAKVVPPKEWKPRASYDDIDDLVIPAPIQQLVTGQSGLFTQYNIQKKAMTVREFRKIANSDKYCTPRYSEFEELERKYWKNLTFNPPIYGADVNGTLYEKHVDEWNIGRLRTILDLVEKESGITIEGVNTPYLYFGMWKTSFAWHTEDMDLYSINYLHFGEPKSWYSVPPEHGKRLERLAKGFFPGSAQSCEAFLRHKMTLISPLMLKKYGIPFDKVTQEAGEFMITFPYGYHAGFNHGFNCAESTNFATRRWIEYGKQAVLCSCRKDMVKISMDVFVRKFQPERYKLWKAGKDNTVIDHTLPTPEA
Chain of Jarid1A (P29375 1-1090): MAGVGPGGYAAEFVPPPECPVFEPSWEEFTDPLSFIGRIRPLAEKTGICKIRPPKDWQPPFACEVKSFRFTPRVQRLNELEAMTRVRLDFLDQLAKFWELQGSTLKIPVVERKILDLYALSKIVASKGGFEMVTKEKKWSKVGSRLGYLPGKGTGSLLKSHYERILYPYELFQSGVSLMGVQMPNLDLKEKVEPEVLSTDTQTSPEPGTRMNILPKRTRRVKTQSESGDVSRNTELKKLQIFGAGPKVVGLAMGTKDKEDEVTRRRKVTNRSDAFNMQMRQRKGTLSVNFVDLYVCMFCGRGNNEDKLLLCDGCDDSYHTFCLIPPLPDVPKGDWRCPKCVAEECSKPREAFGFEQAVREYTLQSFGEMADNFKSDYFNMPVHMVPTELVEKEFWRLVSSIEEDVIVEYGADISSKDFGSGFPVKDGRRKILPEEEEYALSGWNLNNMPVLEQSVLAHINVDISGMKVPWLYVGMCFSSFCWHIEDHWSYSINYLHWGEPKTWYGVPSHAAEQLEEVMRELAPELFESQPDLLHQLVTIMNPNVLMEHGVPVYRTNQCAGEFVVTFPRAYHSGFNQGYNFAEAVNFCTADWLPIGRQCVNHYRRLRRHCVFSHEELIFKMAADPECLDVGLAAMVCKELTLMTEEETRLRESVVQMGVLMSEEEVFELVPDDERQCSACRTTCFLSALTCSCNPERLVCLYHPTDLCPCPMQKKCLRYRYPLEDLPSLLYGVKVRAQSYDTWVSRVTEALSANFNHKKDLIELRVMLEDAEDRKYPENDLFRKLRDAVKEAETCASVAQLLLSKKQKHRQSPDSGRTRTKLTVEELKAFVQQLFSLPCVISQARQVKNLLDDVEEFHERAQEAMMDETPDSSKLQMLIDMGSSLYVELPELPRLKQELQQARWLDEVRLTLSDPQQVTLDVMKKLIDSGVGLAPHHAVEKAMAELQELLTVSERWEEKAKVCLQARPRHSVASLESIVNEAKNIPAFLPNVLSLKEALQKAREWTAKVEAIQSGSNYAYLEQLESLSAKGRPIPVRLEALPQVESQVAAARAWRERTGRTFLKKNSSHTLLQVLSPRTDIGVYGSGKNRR

For `Cn1cnc(-c2cc(-c3nn[nH]n3)ccn2)c1` [Example 62, 2-(1-methyl-1H-imidazol-4-yl)-4-(2H-tetrazol-5-yl)pyridine], the IC50 in assay [1] was above 10000 nM; in assay [2], above 10000 nM; in assay [3], 100 to 1000 nM; in assay [4] it was above 10000 nM; in assay [5], at most 100 nM; in assay [6], 100 to 1000 nM.

Regarding `Cn1cnc(-c2cc(C(=O)O)ccn2)c1-c1ccc(F)cc1` [Example 23, 2-[5-(4-fluorophenyl)-1-methyl-1H-imidazol-4-yl]pyridine-4-carboxylic acid], the IC50 is 1000 to 10000 nM in assay [1]; 100 to 1000 nM in assay [2]; at most 100 nM in assay [3]; 100 to 1000 nM in assay [4]; at most 100 nM in assay [5]; at most 100 nM in assay [6].

With `O=C(O)c1ccnc(-c2cn(CCN(Cc3ccc(F)cc3)C3CC3)cn2)c1` [Example 71, 2-[1-[2-[cyclopropyl-[(4-fluorophenyl)methyl]amino]ethyl]imidazol-4-yl]pyridine-4-carboxylic acid], the IC50 in assay [1] is 1000 to 10000 nM; in assay [2] it was at most 100 nM; in assay [3], at most 100 nM; in assay [4], at most 100 nM; in assay [5], at most 100 nM; in assay [6] it was at most 100 nM.

Consider `Cc1ccccc1CCn1cnc(-c2cc(C(=O)O)ccn2)c1` [Example 96, 2-[1-[2-(2-methylphenyl)ethyl]imidazol-4-yl]pyridine-4-carboxylic acid], for which the IC50 was 1000 to 10000 nM in assay [1]; 100 to 1000 nM in assay [2]; at most 100 nM in assay [3]; 100 to 1000 nM in assay [4]; at most 100 nM in assay [5]; at most 100 nM in assay [6].

For the molecule `Cn1cnc(-c2cc(C(=O)O)ccn2)c1` [Example 1, 2-(1-methyl-1H-imidazol-4-yl)pyridine-4-carboxylic acid], the IC50 in assay [1] is above 10000 nM; in assay [2], at most 100 nM; in assay [3], at most 100 nM; in assay [4] it was at most 100 nM; in assay [5], at most 100 nM; in assay [6] it was at most 100 nM.

As to `CC(c1ccccc1)n1cnc(-c2cc(C(=O)O)ccn2)c1` (stereo not drawn) [Example 103], the IC50 is 1000 to 10000 nM in assay [1]; at most 100 nM in assay [2]; at most 100 nM in assay [3]; at most 100 nM in assay [4]; at most 100 nM in assay [5]; at most 100 nM in assay [6].

Turning to `O=C(O)c1ccnc(-c2cn(CCc3ccccc3Cl)cn2)c1` [Example 97, 2-[1-[2-(2-chlorophenyl)ethyl]imidazol-4-yl]pyridine-4-carboxylic acid], the IC50 in assay [1] was 1000 to 10000 nM; in assay [2] it was at most 100 nM; in assay [3], at most 100 nM; in assay [4], 100 to 1000 nM; in assay [5], at most 100 nM; in assay [6], at most 100 nM.

As for `O=C(O)c1ccnc(-c2cn(C3Cc4ccccc4C3)cn2)c1` [Example 99, 2-[1-(2,3-dihydro-1H-inden-2-yl)imidazol-4-yl]pyridine-4-carboxylic acid], the IC50 in assay [1] was 1000 to 10000 nM; in assay [2], 100 to 1000 nM; in assay [3], at most 100 nM; in assay [4], 100 to 1000 nM; in assay [5], at most 100 nM; in assay [6] it was at most 100 nM.

Consider `O=C(O)c1ccnc(-c2cn(CCc3ccccc3C(F)(F)F)cn2)c1` [Example 98, 2-[1-[2-[2-(trifluoromethyl)phenyl]ethyl]imidazol-4-yl]pyridine-4-carboxylic acid], for which the IC50 in assay [1] was above 10000 nM; in assay [2], at most 100 nM; in assay [3] it was at most 100 nM; in assay [4], at most 100 nM; in assay [5] it was at most 100 nM; in assay [6], at most 100 nM.

`O=C(O)c1ccnc(-c2cn(CCN3CCCc4ccccc43)cn2)c1` [Example 88, 2-[1-[2-(3,4-dihydro-2H-quinolin-1-yl)ethyl]imidazol-4-yl]pyridine-4-carboxylic acid]: the IC50 in assay [1] is 1000 to 10000 nM; in assay [2] it was at most 100 nM; in assay [3], at most 100 nM; in assay [4], 100 to 1000 nM; in assay [5] it was at most 100 nM; in assay [6], at most 100 nM.

Consider `O=C(O)c1ccnc(-c2cn(Cc3ccc(F)cc3)cn2)c1` [Example 101, 2-[1-[(4-fluorophenyl)methyl]imidazol-4-yl]pyridine-4-carboxylic acid], for which the IC50 is 1000 to 10000 nM in assay [1]; 100 to 1000 nM in assay [2]; at most 100 nM in assay [3]; 100 to 1000 nM in assay [4]; at most 100 nM in assay [5]; at most 100 nM in assay [6].

As for `CC(C)(Cn1cnc(-c2cc(C(=O)O)ccn2)c1)c1ccccc1Cl` [Example 105, 2-[1-[2-(2-chlorophenyl)-2-methylpropyl]imidazol-4-yl]pyridine-4-carboxylic acid], the IC50 in assay [1] was 1000 to 10000 nM; in assay [2], 100 to 1000 nM; in assay [3], at most 100 nM; in assay [4] it was 1000 to 10000 nM; in assay [5], at most 100 nM; in assay [6], at most 100 nM.

Turning to `O=C(O)c1ccnc(-c2cn(CCN3CCCC3)cn2)c1` [Example 43, 2-{1-[2-(pyrrolidin-1-yl)ethyl]-1H-imidazol-4-yl}pyridine-4-carboxylic acid], the IC50 in assay [1] was above 10000 nM; in assay [2], at most 100 nM; in assay [3], at most 100 nM; in assay [4] it was at most 100 nM; in assay [5], 1000 to 10000 nM; in assay [6], at most 100 nM.

These data come from US10273222B2 (CELGENE QUANTICEL RESEARCH, INC., priority 2013, dated 2019).
